# Values quoted from earlier work, collected in US20070218480A1, “DETECTION AND DIAGNOSIS OF SMOKING RELATED CANCERS” (THE BOARD OF REGENTS OF THE UNIVERSITY OF TEXAS SYSTEM, priority 2006, published 2007).
# Like-named read-outs stand apart in the source and are kept apart here.
# Columns and labels:
# [1] = stored at in a dry, airtight, light-resistant environment
# [2] = mice
molecule,measurement,setting,value
COc1cc2ncnc(Nc3ccc(F)c(Cl)c3)c2cc1OCCCN1CCOCC1 [gefitinib],objective response (OR),NSCLC patients; HER2 FISH-negative (no or low gain) NSCLC patients treated with gefitinib,6.4%
same,disease control rate (DCR),NSCLC patients; HER2 FISH-negative patients,33.3%
same,overall survival (OS),NSCLC patients; HER2 FISH-negative patients,8.4 months
same,time to progression (TTP),NSCLC patients; HER2 FISH-negative patients,2.7 months
same,objective response (OR),NSCLC patients; HER2 FISH-positive (high copy number) NSCLC patients treated with gefitinib,34.8%
same,disease control rate (DCR),NSCLC patients; HER2 FISH-positive patients,56.5%
same,overall survival (OS),NSCLC patients; HER2 FISH-positive patients,20.8 months
same,time to progression (TTP),NSCLC patients; HER2 FISH-positive patients,9.05 months
CC[C@@]1(O)C(=O)OCc2c1cc1n(c2=O)Cc2cc3ccccc3nc2-1 [Camptothecin],storage stability,[1],at least two
Bleomycin,tissue distribution,[2],"high concentrations of bleomycin are found in the skin, lungs, kidneys, peritoneum, and lymphatics"
